Source: PubChem BioAssay (NCI)
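Assay format: 96-well plates, 48-hour exposure. TGI marks complete inhibition of growth.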

Columns and labels:
Assay in all cases: NCI-60 cell line screen, 48 h
786-0 renal = system: 786-0 renal
A498 renal = system: A498 renal
A549 NSCLC = system: A549 NSCLC
ACHN renal = system: ACHN renal
CAKI-1 renal = system: CAKI-1 renal
CCRF-CEM leukemia = system: CCRF-CEM leukemia
COLO 205 colon = system: COLO 205 colon
DLD-1 colon = system: DLD-1 colon
DMS 114 small cell lung = system: DMS 114 small cell lung
DMS 273 small cell lung = system: DMS 273 small cell lung
EKVX NSCLC = system: EKVX NSCLC
HCC-2998 colon = system: HCC-2998 colon
HCT-116 colon = system: HCT-116 colon
HCT-15 colon = system: HCT-15 colon
HL-60(TB) leukemia = system: HL-60(TB) leukemia
HOP-18 NSCLC = system: HOP-18 NSCLC
HOP-62 NSCLC = system: HOP-62 NSCLC
HOP-92 NSCLC = system: HOP-92 NSCLC
HT29 colon = system: HT29 colon
IGROV1 ovarian = system: IGROV1 ovarian
K-562 leukemia = system: K-562 leukemia
KM12 colon = system: KM12 colon
KM20L2 colon = system: KM20L2 colon
LOX IMVI melanoma = system: LOX IMVI melanoma
LXFL 529 NSCLC = system: LXFL 529 NSCLC
M14 melanoma = system: M14 melanoma
M19-MEL melanoma = system: M19-MEL melanoma
MALME-3M melanoma = system: MALME-3M melanoma
MOLT-4 leukemia = system: MOLT-4 leukemia
NCI-H226 lung = system: NCI-H226 lung
NCI-H23 lung = system: NCI-H23 lung
NCI-H460 lung = system: NCI-H460 lung
NCI-H522 lung = system: NCI-H522 lung
OVCAR-3 ovarian = system: OVCAR-3 ovarian
OVCAR-4 ovarian = system: OVCAR-4 ovarian
OVCAR-5 ovarian = system: OVCAR-5 ovarian
OVCAR-8 ovarian = system: OVCAR-8 ovarian
RPMI-8226 leukemia = system: RPMI-8226 leukemia
RXF 393 renal = system: RXF 393 renal
SF-268 CNS = system: SF-268 CNS
SF-295 CNS = system: SF-295 CNS
SF-539 CNS = system: SF-539 CNS
SK-MEL-2 melanoma = system: SK-MEL-2 melanoma
SK-MEL-28 melanoma = system: SK-MEL-28 melanoma
SK-MEL-5 melanoma = system: SK-MEL-5 melanoma
SK-OV-3 ovarian = system: SK-OV-3 ovarian
SN12C renal = system: SN12C renal
SNB-19 CNS = system: SNB-19 CNS
SNB-75 CNS = system: SNB-75 CNS
SNB-78 CNS = system: SNB-78 CNS
SR leukemia = system: SR leukemia
SW-620 colon = system: SW-620 colon
TK-10 renal = system: TK-10 renal
U251 CNS = system: U251 CNS
UACC-257 melanoma = system: UACC-257 melanoma
UACC-62 melanoma = system: UACC-62 melanoma
UO-31 renal = system: UO-31 renal
XF 498 CNS = system: XF 498 CNS

O=C(Nc1ccc(Sc2ccc(N=Nc3c(O)c(S(=O)(=O)O)cc4cc(S(=O)(=O)O)ccc34)cc2)cc1)c1ccc(N=Nc2c(O)c(S(=O)(=O)O)cc3cc(S(=O)(=O)O)ccc23)cc1
TGI (786-0 renal): > 100 µM | TGI (A498 renal): > 100 µM | TGI (A549 NSCLC): > 100 µM | TGI (ACHN renal): > 100 µM | TGI (CAKI-1 renal): > 100 µM | TGI (CCRF-CEM leukemia): 64.3 µM | TGI (COLO 205 colon): 40.2 µM | TGI (DLD-1 colon): > 100 µM | TGI (DMS 114 small cell lung): 42.9 µM | TGI (DMS 273 small cell lung): > 100 µM | TGI (EKVX NSCLC): > 100 µM | TGI (HCC-2998 colon): > 100 µM | TGI (HCT-116 colon): > 100 µM | TGI (HCT-15 colon): 28 µM | TGI (HL-60(TB) leukemia): 37.4 µM | TGI (HOP-18 NSCLC): 79.7 µM | TGI (HOP-62 NSCLC): > 100 µM | TGI (HOP-92 NSCLC): 92.4 µM | TGI (HT29 colon): > 100 µM | TGI (IGROV1 ovarian): > 100 µM | TGI (K-562 leukemia): > 100 µM | TGI (KM12 colon): > 100 µM | TGI (KM20L2 colon): > 100 µM | TGI (LOX IMVI melanoma): 34.5 µM | TGI (LXFL 529 NSCLC): > 100 µM | TGI (M14 melanoma): 91.8 µM | TGI (M19-MEL melanoma): > 100 µM | TGI (MALME-3M melanoma): 53.5 µM | TGI (MOLT-4 leukemia): 36.8 µM | TGI (NCI-H226 lung): > 100 µM | TGI (NCI-H23 lung): 61.2 µM | TGI (NCI-H460 lung): 27.7 µM | TGI (NCI-H522 lung): 35.4 µM | TGI (OVCAR-3 ovarian): 54.9 µM | TGI (OVCAR-4 ovarian): > 100 µM | TGI (OVCAR-5 ovarian): > 100 µM | TGI (OVCAR-8 ovarian): > 100 µM | TGI (RPMI-8226 leukemia): 56.2 µM | TGI (RXF 393 renal): 71.7 µM | TGI (SF-268 CNS): > 100 µM | TGI (SF-295 CNS): > 100 µM | TGI (SF-539 CNS): > 100 µM | TGI (SK-MEL-2 melanoma): 96.8 µM | TGI (SK-MEL-28 melanoma): 86.5 µM | TGI (SK-MEL-5 melanoma): 53.9 µM | TGI (SK-OV-3 ovarian): > 100 µM | TGI (SN12C renal): > 100 µM | TGI (SNB-19 CNS): > 100 µM | TGI (SNB-75 CNS): > 100 µM | TGI (SNB-78 CNS): > 100 µM | TGI (SR leukemia): 54 µM | TGI (SW-620 colon): > 100 µM | TGI (TK-10 renal): > 100 µM | TGI (U251 CNS): > 100 µM | TGI (UACC-257 melanoma): > 100 µM | TGI (UACC-62 melanoma): 62 µM | TGI (UO-31 renal): > 100 µM | TGI (XF 498 CNS): > 100 µM

c1ccc2c(c1)Sc1ccccc1N2C1CN2CCC1CC2 (stereo unspecified)
TGI (786-0 renal): 25.9 µM | TGI (A498 renal): 22.5 µM | TGI (A549 NSCLC): 32.1 µM | TGI (ACHN renal): 36.1 µM | TGI (CAKI-1 renal): 33.9 µM | TGI (CCRF-CEM leukemia): 33.9 µM | TGI (COLO 205 colon): 34.5 µM | TGI (DLD-1 colon): 29.6 µM | TGI (DMS 114 small cell lung): 35.3 µM | TGI (DMS 273 small cell lung): 30.7 µM | TGI (EKVX NSCLC): 27.7 µM | TGI (HCC-2998 colon): 29 µM | TGI (HCT-116 colon): 28.8 µM | TGI (HCT-15 colon): 34 µM | TGI (HL-60(TB) leukemia): 32 µM | TGI (HOP-18 NSCLC): 47.5 µM | TGI (HOP-62 NSCLC): 25.9 µM | TGI (HT29 colon): 53.9 µM | TGI (IGROV1 ovarian): 42.3 µM | TGI (K-562 leukemia): 29.5 µM | TGI (KM12 colon): 33.9 µM | TGI (KM20L2 colon): 30.2 µM | TGI (LOX IMVI melanoma): 26.8 µM | TGI (LXFL 529 NSCLC): 30.6 µM | TGI (M19-MEL melanoma): 29.7 µM | TGI (MALME-3M melanoma): 30.5 µM | TGI (MOLT-4 leukemia): 28.1 µM | TGI (NCI-H226 lung): 18.9 µM | TGI (NCI-H23 lung): 74.5 µM | TGI (NCI-H460 lung): 33.4 µM | TGI (NCI-H522 lung): 38.9 µM | TGI (OVCAR-3 ovarian): 31.5 µM | TGI (OVCAR-4 ovarian): 35.2 µM | TGI (OVCAR-8 ovarian): 32.5 µM | TGI (RPMI-8226 leukemia): 43.4 µM | TGI (SF-268 CNS): 63 µM | TGI (SF-295 CNS): 32.2 µM | TGI (SF-539 CNS): 28.3 µM | TGI (SK-MEL-2 melanoma): 16.8 µM | TGI (SK-MEL-28 melanoma): 32.1 µM | TGI (SK-MEL-5 melanoma): 29.9 µM | TGI (SK-OV-3 ovarian): 35.4 µM | TGI (SN12C renal): 29.1 µM | TGI (SNB-19 CNS): 46.7 µM | TGI (SNB-75 CNS): 25.4 µM | TGI (SNB-78 CNS): 30 µM | TGI (SW-620 colon): 33.2 µM | TGI (TK-10 renal): 27.7 µM | TGI (U251 CNS): 30.9 µM | TGI (UACC-257 melanoma): 31.8 µM | TGI (UACC-62 melanoma): 34.5 µM | TGI (UO-31 renal): 39.6 µM | TGI (XF 498 CNS): 28.8 µM
